# According to US20070010671A1, “Novel quinazoline derivatives and methods of treatment related to the use thereof” (priority 2003, published 2007):
# Target: MCH receptor (Homo sapiens, UniProt Q99705)
# Assay: High throughput functional screening FLIPR/FDSS6000: inhibition of MCH-evoked intracellular Ca2+ changes
# Type: cell-based
# Conditions: class by percent of control at 10^-7 M or IC50
# Summary of the method: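 In a kinetic calcium-flux format, compounds were tested at various concentrations against 50 nM MCH. Fluo4-loaded cells expressing a constitutively active, non-endogenous receptor were imaged at 488/530 nm for 290 s after agonist addition.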
row,SMILES,class
1,C#CCNC(=S)N[C@H]1CC[C@@H](Nc2nc(N(C)C)c3ccccc3n2)CC1 [compound 356],3 (Class 3: The value of percent of control at 10^−7 M was more than 60% or the value of IC50 was more than 200 nM.)
2,"CN(C)c1nc(N[C@H]2CC[C@@H](NC(=O)Nc3ccc4c(c3)OCCCO4)CC2)nc2ccccc12 [compound 343, N-(3,4-dihydro-2H-1,5-benzodioxepin-7-yl)-N′-(cis-4-{[4-(dimethylamino)quinazolin-2-yl]amino}cyclohexyl)urea]",1 (Class 1: The value of percent of control at 10^−7 M was less than 40% or the value of IC50 was less than 50 nM.)
3,COc1ccc(OC)c(CCNC(=S)NC[C@H]2CC[C@@H](Nc3nc(N(C)C)c4ccccc4n3)CC2)c1 [compound 720],3 (Class 3: The value of percent of control at 10^−7 M was more than 60% or the value of IC50 was more than 200 nM.)
4,"CSc1cccc(NC(=O)NC[C@H]2CC[C@@H](Nc3nc(N(C)C)c4ccccc4n3)CC2)c1 [compound 517, N-[(cis-4-{[4-(dimethylamino)quinazolin-2-yl]amino}cyclohexyl)methyl]-N′-[3-(methylthio)phenyl]urea]",2 (Class 2: The value of percent of control at 10^−7 M was from 40% to 60% or the value of IC50 was from 50 nM to 200 nM.)
5,CCOC(=O)c1ccc(NC(=O)NC[C@H]2CC[C@@H](Nc3nc(N(C)C)c4ccccc4n3)CC2)cc1 [compound 431],3 (Class 3: The value of percent of control at 10^−7 M was more than 60% or the value of IC50 was more than 200 nM.)
6,CN(C)c1nc(N[C@H]2CC[C@@H](CNC(=O)Nc3ccc(OCc4ccccc4)cc3)CC2)nc2ccccc12 [compound 539],3 (Class 3: The value of percent of control at 10^−7 M was more than 60% or the value of IC50 was more than 200 nM.)
7,COC(=O)c1cc(NC(=O)N[C@H]2CC[C@@H](Nc3nc(N(C)C)c4ccccc4n3)CC2)cc(C(=O)OC)c1 [compound 331],3 (Class 3: The value of percent of control at 10^−7 M was more than 60% or the value of IC50 was more than 200 nM.)
8,CN(C)c1nc(N[C@H]2CC[C@@H](CNC(=O)Nc3cccc(Oc4ccccc4)c3)CC2)nc2ccccc12 [compound 534],3 (Class 3: The value of percent of control at 10^−7 M was more than 60% or the value of IC50 was more than 200 nM.)
9,"CN(C)c1nc(N[C@H]2CC[C@@H](CNC(=S)Nc3c(Cl)cc(Cl)cc3Cl)CC2)nc2ccccc12 [compound 670, N-[(cis-4-{[4-(dimethylamino)quinazolin-2-yl]amino}cyclohexyl)methyl]-N′-(2,4,6-trichlorophenyl)thiourea]",2 (Class 2: The value of percent of control at 10^−7 M was from 40% to 60% or the value of IC50 was from 50 nM to 200 nM.)
10,Cc1cccc(NC(=S)NC[C@H]2CC[C@@H](Nc3nc(N(C)C)c4ccccc4n3)CC2)c1C [compound 780],3 (Class 3: The value of percent of control at 10^−7 M was more than 60% or the value of IC50 was more than 200 nM.)
11,"Cc1cccc(NC(=S)N[C@H]2CC[C@@H](Nc3nc(N(C)C)c4ccccc4n3)CC2)c1C [compound 359, N-(cis-4-{[4-(dimethylamino)quinazolin-2-yl]amino}cyclohexyl)-N′-(2,3-dimethylphenyl)thiourea]",1 (Class 1: The value of percent of control at 10^−7 M was less than 40% or the value of IC50 was less than 50 nM.)

# Same assay, conditions: class by percent of control at 10^-7 M or by IC50; read-out: class
row,IC50 [nM],SMILES
1,50 to 200,"CN(C)c1nc(N[C@H]2CC[C@@H](NC(=O)Nc3ccc(I)cc3)CC2)nc2ccccc12 [compound 826, N-(cis-4-{[4-(dimethylamino)quinazolin-2-yl]amino}cyclohexyl)-N′-(4-iodophenyl)urea]"
2,> 200,CN(C)c1nc(N[C@H]2CC[C@@H](NC(=O)Nc3ccc(C(F)(F)F)cc3)CC2)nc2ccccc12 [compound 136]
3,50 to 200,CN(C)c1nc(N[C@H]2CC[C@@H](CNC(=S)NCC3CC3)CC2)nc2ccccc12 [compound 800]
4,> 200,CN(C)c1nc(N[C@H]2CC[C@@H](NC(=S)NCc3ccccc3)CC2)nc2ccccc12 [compound 156]
5,< 50,"CCc1cccc(C)c1NC(=O)N[C@H]1CC[C@@H](Nc2nc(N(C)C)c3ccccc3n2)CC1 [compound 33, N-(cis-4-{[4-(dimethylamino)quinazolin-2-yl]amino}cyclohexyl)-N′-(2-ethyl-6-methylphenyl)urea]"
6,> 200,CCCCCCCCOC(=O)N[C@H]1CC[C@@H](Nc2nc(N(C)C)c3ccccc3n2)CC1 [compound 853]
7,< 50,"CN(C)c1nc(N[C@H]2CC[C@@H](NC(=O)Nc3c(Cl)cccc3C(F)(F)F)CC2)nc2ccccc12 [compound 89, N-[2-chloro-6-(trifluoromethyl)phenyl]-N′-(cis-4-{[4-(dimethylamino)quinazolin-2-yl]amino}cyclohexyl)urea]"
8,< 50,"Cc1ccccc1CNC(=O)N[C@H]1CC[C@@H](Nc2nc(N(C)C)c3ccccc3n2)CC1 [compound 111, N-(cis-4-{[4-(dimethylamino)quinazolin-2-yl]amino}cyclohexyl)-N′-(2-methylbenzyl)urea]"
9,< 50,"CCc1cccc(CC)c1NC(=O)N[C@H]1CC[C@@H](Nc2nc(N(C)C)c3ccccc3n2)CC1 [compound 85, N-(2,6-diethylphenyl)-N′-(cis-4-{[4-(dimethylamino)quinazolin-2-yl]amino}cyclohexyl)urea]"
10,< 50,"Cc1cccc(C)c1NC(=S)N[C@H]1CC[C@@H](Nc2nc(N(C)C)c3ccccc3n2)CC1 [compound 169, N-(cis-4-{[4-(dimethylamino)quinazolin-2-yl]amino}cyclohexyl)-N′-(2,6-dimethylphenyl)thiourea]"
11,> 200,CN(C)c1nc(N[C@H]2CC[C@@H](NC(=O)Nc3cc(Cl)ccc3Cl)CC2)nc2ccccc12 [compound 26]

# Same assay, conditions: class by percent of control at 10^−7 M or by IC50; read-out: class
row,IC50 [nM],SMILES
1,> 200,"CN(C)c1nc(N[C@H]2CC[C@@H](NC(=O)c3ccc(Oc4ccccc4Cl)nc3)CC2)nc2ccccc12 [Example 1051, 6-(2-chlorophenoxy)-N-(cis-4-{[4-(dimethylamino)quinazolin-2-yl]amino}cyclohexyl)nicotinamide]"
2,< 50,"CN(C)c1nc(N[C@H]2CC[C@@H](NC(=O)c3cccnc3Oc3cccc(F)c3)CC2)nc2ccccc12 [Example 1034, N-(cis-4-{[4-(dimethylamino)quinazolin-2-yl]amino}cyclohexyl)-2-(3-fluorophenoxy)nicotinamide]"
3,< 50,"CN(C)c1nc(N[C@H]2CC[C@@H](C(=O)NCc3ccc(S(C)(=O)=O)cc3)CC2)nc2ccccc12 [Example 1195, cis-4-{[4-(dimethylamino)quinazolin-2-yl]amino}-N-[4-(methylsulfonyl)benzyl]cyclohexanecarboxamide]"
4,< 50,"CN(C)c1nc(N[C@H]2CC[C@@H](C(=O)NCc3ccc(F)c(Br)c3)CC2)nc2ccccc12 [Example 1161, cis-N-(3-bromo-4-fluorobenzyl)-4-{[4-(dimethylamino)quinazolin-2-yl]amino}cyclohexanecarboxamide]"
5,< 50,"CN(C)c1nc(N[C@H]2CC[C@@H](C(=O)Nc3ccc(Cl)nc3)CC2)nc2ccccc12 [Example 1196, cis-N-(6-chloropyridin-3-yl)-4-{[4-(dimethylamino)quinazolin-2-yl]amino}cyclohexanecarboxamide]"
6,< 50,"CN(C)c1nc(N[C@H]2CC[C@@H](CNC(=O)Nc3cccc(Cl)c3Cl)CC2)nc2ccccc12 [Example 1028, N-(2,3-dichlorophenyl)-N′-[(cis-4-{[4-(dimethylamino)quinazolin-2-yl]amino}cyclohexyl)methyl]urea]"
